Experimental data taken from US4343805A, “Heterocyclic compounds” (John Wyeth & Brother Limited, priority 1978, dated 1982).

Legend:
[1] = tested on: male spontaneously hypertensive rats; test: Anti-hypertensive activity, Procedure A (spontaneously hypertensive rats, systolic pressure); type: in vivo, rat
Protocol: (§1) Some compounds of the invention were tested for anti-hypertensive activity by the following procedures.
Systolic pressure of male spontaneously hypertensive rats is measured by an indirect technique using the Decker Caudal Plethylsmograph or other appropriate sensor. Groups usually consist of 4 rats. Drugs are usually administered orally. Pressures are usually read prior to drug administration and at 1.5, 4 and 24 hours thereafter. The schedule may be altered depending upon the behaviour of the drug.

[2] = tested on: Anti-secretory (gastric secretion volume); test: Anti-secretory test (Shay et al); type: in vivo
Protocol: (§2) Anti-ulcer activity was determined by the stress-induced erosion test of Senay & Levine, Proc. Soc. Exp. Biol. Med., 124, 1221-3(1967) and anti-secretory activity by the test of H. Shay, D. Sun and H. Greenstein, Gastroentarology, 1954, 26, 903-13 as exemplified by Beattie et al J. Med. Chem., 20, 714 (1977). […] However, some compounds show activity in tests for anti-hypertensive activity.

Stress-induced erosion = Stress-induced erosion test (Senay & Levine), anti-ulcer activity; type: in vivo
Protocol: as §2

[3] = tested on: Female rats rendered hypertensive (unilateral nephrectomy, deoxycorticosterone acetate); test: Anti-hypertensive activity, Procedure B (deoxycorticosterone acetate hypertensive rats, systolic pressure); type: in vivo, rat; conditions: 50 mg/kg orally, DOCA hypertensive female rats
Protocol: as §1
Female rats are rendered hypertensive by unilateral nephrectomy and the s.c. implantation of a pellet containing 30 mg of deoxycorticosterone acetate. The drinking water is replaced by normal saline ad lib for the first four weeks following preparation. Blood pressures stabilise at a hypertensive level after 6 weeks. Systolic pressure is measured indirectly before dosing with a test compound using an E and M pneumatic pulse transducer and a Devices MX2 recorder. Groups of 4 rats are dosed orally with suspensions or solutions of the test compound in 0.5% hydroxypropyl-methyl-cellulose 0.9% saline vehicle. Blood pressures are recorded again at 2, 6 and 24 hours and the results, expressed as a percentage of the pre-dose values compared with those of a similar group of rats receiving vehicle alone.

| Structure (SMILES) | Anti-secretory (Shay et al), % change in volume ([2]; Dose 30 mg/kg) [%] | inhibition in vivo at 100 mg/kg (Stress-induced erosion) [%] | other results |
| --- | --- | --- | --- |
| C[n+]1ccccc1SCc1cccnc1 [Example 5, 1-Methyl-2-(3-pyridylmethylthio)pyridinium chloride] | -55 | 58 | Anti-hypertensive activity (Procedure A) ([1]; 75 mg/kg orally): showed activity |
| C[n+]1ccccc1SCc1ccc2ccccc2n1 [Example 10, 1-Methyl-2([(2-quinolyl)methyl]thio)pyridinium chloride] | – | – | Anti-hypertensive activity (Procedure A) ([1]; 50 mg/kg orally): showed activity |
| C[n+]1ccccc1SCCN1CCCCC1 [Example 11, 1-Methyl-2-[(2-piperidinoethyl)thio]pyridinium chloride] | -35 | – | – |
| Cc1[nH]cnc1CSc1nccn1C [Example 4, 1-Methyl-2(4-[5-methylimidazolyl]methylthio)imidazole] | -87 | 83 | Anti-hypertensive activity (Procedure B) [3]: active; Anti-secretory (Shay et al), % change in volume ([2]; Dose 10 mg/kg): -33%; inhibition in vivo at 30 mg/kg (Stress-induced erosion): 58% |
| c1ccc(SCc2c[nH]cn2)nc1 [Example 8, 2-(4-Imidazolylmethylthio)pyridine] | – | 79 | inhibition in vivo at 30 mg/kg (Stress-induced erosion): 70% |
| Cc1[nH]cnc1CSc1ccccn1 [Example 6, 2-(4-[5-Methylimidazolyl]methylthio)pyridine] | – | – | Anti-hypertensive activity (Procedure A) ([1]; 75 mg/kg orally): inactive; inhibition in vivo at 3 mg/kg (Stress-induced erosion; Dose 3 mg/kg): 56%; inhibition in vivo at 10 mg/kg (Stress-induced erosion; Dose 10 mg/kg): 68% |
| C[n+]1ccccc1SCc1ccncc1 [Example 9, 1-Methyl-2-([(4-pyridyl)methyl]thio)pyridinium chloride] | – | – | Anti-hypertensive activity (Procedure A) ([1]; 50 mg/kg orally): showed activity |
| Cc1[nH]cnc1CSc1ccncc1 [Example 7, 4-(4-[5-Methylimidazolyl]methylthio)pyridine] | -60 | 87 | Anti-hypertensive activity (Procedure B) [3]: inactive |
| C[n+]1ccccc1SCc1ccccn1 [Example 2, 1-Methyl-2(2-pyridyl)methylthio)pyridinium chloride] | -31 | 50 | – |
| Cc1[nH]cnc1CSc1cccc[n+]1C [Example 1, 1-Methyl-2(4-[5-methylimidazolyl]methylthio)pyridinium chloride] | -65 | 69 | Anti-hypertensive activity (Procedure B) [3]: inactive; Anti-secretory (Shay et al), % change in volume ([2]; Dose 10 mg/kg): -43% |
| C[n+]1ccccc1SCc1c[nH]cn1 [Example 3, 1-Methyl-2(4-imidazolylmethylthio)pyridinium chloride] | -71 | 67 | Anti-hypertensive activity (Procedure A) ([1]; 75 mg/kg orally): showed activity |
